# Measured values from publication PMC7449217, “The FDA-Approved Drug Nelfinavir Inhibits Lytic Cell-Free but Not Cell-Associated Nonlytic Transmission of Human Adenovirus” (Antimicrobial Agents and Chemotherapy, 2020).
# Structures can show the parent of a compound that is named as a salt.
# Biological target: T1, L3/p23 cysteine protease (Human adenovirus C serotype 5, UniProt P03253)
# T1 construct: Double-CsCl-purified HAdV particles grown in the presence or absence of nelfinavir; endogenous in cells
# T1 sequence (P03253 whole entry): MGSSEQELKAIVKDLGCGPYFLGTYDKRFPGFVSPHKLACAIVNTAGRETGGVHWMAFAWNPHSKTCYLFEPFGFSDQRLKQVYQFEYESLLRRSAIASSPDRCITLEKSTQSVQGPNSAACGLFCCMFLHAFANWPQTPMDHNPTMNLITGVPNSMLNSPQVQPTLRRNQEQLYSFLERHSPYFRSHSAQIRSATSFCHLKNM
# Assay: Western blot analysis of HAdV protease activity (pVI/VI, pVII/VII in purified HAdV-C5)
# Assay type: cell-based
# Conditions: purified HAdV-C5 grown in the presence of nelfinavir
# Method: HAdV-C5 was amplified in medium containing 0, 1.25, or 3 μM nelfinavir for 4 days. Cells were harvested and disrupted by three freeze-thaw cycles. The cell debris was removed by freon extraction, and mature full HAdV virions were purified by two rounds of CsCl gradient ultracentrifugation ([162]). The protein concentration was determined by a bicinchoninic acid (BCA) assay (Pierce BCA protein assay kit; Thermo Fisher Scientific, Waltham, MA, USA). For long-term storage, virus stocks were supplemented with 10% (vol/vol) glycerol and kept at −80°C.
# Double-CsCl-purified HAdV particles grown in the presence or absence of nelfinavir (HAdV-C5^±Nelfinavir stocks) and a size standard (PageRuler plus; Thermo Fisher Scientific, Waltham, MA, USA) were size separated on a 12% acrylamide gel under reducing conditions and transferred to a polyvinylidene difluoride (PVDF) membrane. HAdV proteins were detected using primary antibodies, 1:10,000 R72 rabbit antifiber ([181]), 1:1,000 rabbit anti-pVI/VI ([51]), and 1:1,000 R3 rabbit anti-pVII/VII (Ulf Pettersson, Uppsala University), and visualized using goat anti-rabbit-horseradish peroxidase (HRP) (catalog number 7074; Cell Signaling Technology, Danvers, MA, USA) and the ECL Prime Western blotting detection reagent (GE Healthcare, Pittsburgh, PA, USA). […]
smiles,measurement,value
"Cc1c(O)cccc1C(=O)N[C@@H](CSc1ccccc1)[C@H](O)CN1C[C@H]2CCCC[C@H]2C[C@H]1C(=O)NC(C)(C)C [Nelfinavir, Nelfinavir mesylate]",effect on proteolytic maturation of the virus by L3/p23 cysteine protease,did not affect
